ChEMBL document CHEMBL1132103, “Acylcarnitine analogues as topical, microbicidal spermicides” (1999)
≈ marks a conversion by molar mass, not a printed value. Calls of active or inactive are those of the source. The rule behind the calls is not given here.

Legend:
Candida albicans = test: Minimum inhibitory concentration required for growth inhibition of Candida albicans; assay type: functional
[1] = test system: Human immunodeficiency virus 1; test: In vitro inhibition of HIV-1 (RF strain) using cell-free inactivation assay at concentration of 0.032 mg/mL; assay type: functional, organism-based
[2] = test system: Human immunodeficiency virus 1; test: In vitro inhibition of HIV-1 (RF strain) using cell-free inactivation assay at concentration of 0.1 mg/mL; assay type: functional, organism-based
[3] = test system: Human immunodeficiency virus 1; test: In vitro inhibition of HIV-1 (RF strain) using cell-free inactivation assay at concentration of 0.32 mg/mL; assay type: functional, organism-based
[4] = test system: Human immunodeficiency virus 1; test: In vitro inhibition of HIV-1 (RF strain) using cell-free inactivation assay at concentration of 1.0 mg/mL; assay type: functional, organism-based
[5] = test system: Human immunodeficiency virus 1; test: In vitro inhibition of HIV-1 (RF strain) using cell-free inactivation assay at concentration of 10 mg/mL; assay type: functional, organism-based
[6] = test system: Human immunodeficiency virus 1; test: In vitro inhibition of HIV-1 (RF strain) using cell-free inactivation assay at concentration of 3.2 mg/mL; assay type: functional, organism-based
Homo sapiens [7] = organism: Homo sapiens; test: In vitro spermicidal activity using spermicidal dilution at 48.0 +/-5.1 mg/mL in the Sander-Cramer test; assay type: functional; conditions: read-out: MEC
Homo sapiens [8] = organism: Homo sapiens; test: In vitro spermicidal activity using spermicidal dilution at 27.2 +/- 2.3 mg/mL in the Sander-Cramer test; assay type: functional; conditions: read-out: MEC
[9] = test system: Human immunodeficiency virus 1; test: In vitro inhibition of HIV-1 (RF strain) using cell-free inactivation assay at concentration of 0.032 mg/mL; NA: Not active; assay type: functional, organism-based
[10] = test system: Human immunodeficiency virus 1; test: In vitro inhibition of HIV-1 (RF strain) using cell-free inactivation assay at concentration of 0.1 mg/mL; NA: Not active; assay type: functional, organism-based
Homo sapiens [11] = organism: Homo sapiens; test: In vitro spermicidal activity using spermicidal dilution at 4.8 +/- 0.5 mg/mL in the Sander-Cramer test; assay type: functional; conditions: read-out: MEC
Homo sapiens [12] = organism: Homo sapiens; test: In vitro spermicidal activity using spermicidal dilution at 102.4 +/- 13.5 mg/mL in the Sander-Cramer test; assay type: functional; conditions: read-out: MEC
Homo sapiens [13] = organism: Homo sapiens; test: In vitro spermicidal activity using spermicidal dilution at 7.6 +/- 0.4 mg/mL in the Sander-Cramer test; assay type: functional; conditions: read-out: MEC
Homo sapiens [14] = organism: Homo sapiens; test: In vitro spermicidal activity using spermicidal dilution at 134.4 +/- 14.2 mg/mL in the Sander-Cramer test; assay type: functional; conditions: read-out: MEC

SMILES | MIC (Candida albicans) [µg/mL] | Activity [1] | Activity [2] | Activity [3] | Activity [4] | Activity [5] | Activity [6] | minimal effective concentration (Homo sapiens [7]) [µg/mL] | minimal effective concentration (Homo sapiens [8]) [µg/mL] | Activity [9] | Activity [10] | minimal effective concentration (Homo sapiens [11]) [µg/mL] | minimal effective concentration (Homo sapiens [12]) [µg/mL] | minimal effective concentration (Homo sapiens [13]) [µg/mL] | minimal effective concentration (Homo sapiens [14]) [µg/mL]
CCCCCCCCCCCCC[C@@]1(O)C[N+](C)(C)C[C@@H](CC(=O)[O-])O1 | 40 (≈ 108 µM) | 0.5 | 1.5 | 2.7 | 3.3 | 3.5 | 3.5 | 235 |  |  |  |  |  |  | 
CCCCCCCCCCCC[C@@]1(O)C[N+](C)(C)C[C@@H](CC(=O)[O-])O1 | 80 (≈ 224 µM) | 0 | 0.3 | 2 | 2.8 | > 4 | > 3.5 |  | 407 |  |  |  |  |  | 
CCCCCCCCCC[C@@]1(O)C[N+](C)(C)C[C@@H](CC(=O)[O-])O1 | > 100 |  |  | 0.8 | 1 | > 4 | 2.8 |  |  | inactive | inactive | 2300 |  |  | 
CCCCCCCCCCCCCC[C@@]1(O)C[N+](C)(C)C[C@@H](CC(=O)[O-])O1 | 10 (≈ 25.9 µM) | 0.5 | 1.5 | 2.8 | 3.5 | > 4 | > 4 |  |  |  |  |  | 121 |  | 
CCCCCCCCCCC[C@@]1(O)C[N+](C)(C)C[C@@H](CC(=O)[O-])O1 | > 100 |  |  | 0.8 | 2 | 4.7 | 2.7 |  |  | inactive | inactive |  |  | 1400 | 
CCCCCCCCCCCCCCC[C@@]1(O)C[N+](C)(C)C[C@@H](CC(=O)[O-])O1 [HEMIACYLCARNITINIUM] | 2 (≈ 5 µM) | 0.3 | 1.5 | 2.7 | 3.2 | > 4 | 3.8 |  |  |  |  |  |  |  | 109
